Assay results reported in patent US8163766B2, “Beta-secretase modulators and methods of use” (Amgen Inc., priority 2005, dated 2012).

Test system: Aβ 40 in conditioned media of cells stably expressing Amyloid Precursor Protein (APP)
Experiment: BACE Cell-Based Assay (Aβ40 in conditioned medium, sandwich ELISA)
Conditions: 24 hours of incubation with the test compounds, Aβ 40 by sandwich ELISA, read-out: IC50 values in the cell-based assay (inhibition of Aβ 40)
Outline: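 IC50 derived from Aβ40 reduction in supernatants, quantified by europium time-resolved fluorescence ELISA with pAb40/biotin-6E10 antibodies incubated at 4°C. Cells stably expressing APP received compound for 24 h, ten concentrations from 100 μM or 10 μM top, final DMSO 0.1%.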

Row | IC50 [µM] | Structure (SMILES)
1 | ≤ 5 | CC1(C)Oc2ncccc2[C@@H]1NC[C@@H](O)[C@H](Cc1ccccc1)NC(=O)c1cc(C2=CC=CCN2)c(=O)n(C2CCCC2)c1 [Example 513, 1′-cyclopentyl-N-((1S,2R)-3-(((3S)-2,2-dimethyl-2,3-dihydrofuro[2,3-b]pyridin-3-yl)amino)-2-hydroxy-1-(phenylmethyl)propyl)-2′-oxo-1,2′-dihydro-2,3′-bipyridine-5′-carboxamide]
2 | ≤ 5 | CCc1ccc2c(c1)[C@@H](NC[C@@H](O)[C@H](Cc1ccccc1)NC(=O)C1CN(Cc3ccccc3)CCO1)CC1(CCCC1)O2 (stereo partly drawn) [Example 29, 4-Benzyl-N-((2S,3R)-4-((S)-6-ethyl-2,2-spirocyclopentylchroman-4-ylamino)-3-hydroxy-1-phenylbutan-2-yl) morpholine-2-carboxamide]
3 | ≤ 5 | CCc1ccc2c(c1)[C@@H](NC[C@@H](O)[C@H](Cc1ccccc1)NC(=O)c1cc(N3CCCC3=O)c(=O)n(C3CCCC3)c1)CC1(CCCCC1)O2 [Example 128, 1-cyclopentyl-N-((2S,3R)-4-((8)-6-ethyl-2,2-spirocyclohexyl-chroman-4-ylamino)-3-hydroxy-1-phenylbutan-2-yl)-6-oxo-5-(2-oxopyrrolidin-1-yl)-1,6-dihydropyridine-3-carboxamide]
4 | ≤ 5 | CC(C)(C)Cc1ccc2c(c1)[C@@H](NC[C@@H](O)[C@H](Cc1ccccc1)NC(=O)c1ccc(=O)n(C3CCCC3)c1)CC1(CCCC1)O2 [Example 125]
5 | ≤ 5 | O=C(N[C@@H](Cc1ccccc1)[C@H](O)CN[C@H]1CC2(CCC2)Oc2ccccc21)c1ccc(=O)n(C2CCCC2)c1 [Example 153, 1-cyclopentyl-N-((2S,3R)-4-((S)-2,2-spirocyclobutylchroman-4-ylamino)-3-hydroxy-1-phenylbutan-2-yl)-6-oxo-1,6-dihydropyridine-3-carboxamide]
6 | ≤ 5 | CCc1cc2c(s1)CC(C)(C)C[C@@H]2NC[C@@H](O)[C@H](Cc1ccccc1)NC(=O)[C@H]1CC(=O)N(C2CCC2)C1 [Example 523, (3S)-1-cyclobutyl-N-((1S,2R)-3-(((4S)-2-ethyl-6,6-dimethyl-4,5,6,7-tetrahydro-1-benzothien-4-yl)amino)-2-hydroxy-1-(phenylmethyl)propyl)-5-oxo-3-pyrrolidinecarboxamide]
7 | ≤ 5 | CCc1ccc2c(c1)[C@@H](NC[C@@H](O)[C@H](Cc1ccccc1)NC(=O)[C@H]1CN(C(=O)OC(C)(C)C)c3ccccc3O1)CC1(CCCC1)O2 [Example 52, (R)-tert-Butyl 2-(((2S,3R)-4-((S)-6-ethyl-2,2-spirocyclopentylchroman-4-ylamino)-3-hydroxy-1-phenylbutan-2-yl)carbamoyl)-2,3-dihydrobenzo[b][1,4]oxazine-4-carboxylate]
8 | ≤ 5 | CC1(C)Oc2ncccc2[C@H]1NC[C@@H](O)[C@H](Cc1ccccc1)NC(=O)c1cc(-c2ccccn2)c(=O)n(C2CCCC2)c1 [Example 512, 1′-cyclopentyl-N-((1S,2R)-3-(((3R)-2,2-dimethyl-2,3-dihydrofuro[2,3-b]pyridin-3-yl)amino)-2-hydroxy-1-(phenylmethyl)propyl)-2′-oxo-1′,2′-dihydro-2,3′-bipyridine-5′-carboxamide]
9 | ≤ 5 | CCc1ccc2c(c1)[C@@H](NC[C@@H](O)[C@H](Cc1ccccc1)NC(=O)c1cc(-c3cccc(F)c3)c(=O)n3c1CCC3)CC1(CCCC1)O2 [Example 108, N-((2S,3R)-4-((8)-6-Ethyl-2,2-spirocyclopentylchroman-4-ylamino)3-hydroxy-1-phenylbutan-2-yl)-6-(3-fluorophenyl)-5-oxo-1,2,3,5-tetrahydroindolizine-8-carboxamide]
10 | ≤ 5 | CCc1ccc2c(c1)C(NC[C@@H](O)[C@H](Cc1ccccc1)NC(=O)c1cc(-c3ccccn3)c(=O)n(C3CCCC3)c1)CC1(CCC1)O2 (stereo partly drawn) [Example 164, 1-Cyclopentyl-N-((2S,3R)-4-((S)-6-ethyl-2,2-spirocyclobutylchroman-4-ylamino)-3-hydroxy-1-phenylbutan-2-yl)-6-oxo-5-(pyridin-2-yl)-1,6-dihydropyridine-3-carboxamide]
11 | ≤ 5 | Cc1ccc2c(c1)[C@@H](NC[C@@H](O)[C@H](Cc1ccccc1)NC(=O)c1ccc(=O)n(C3CCCC3)c1)CC1(CCCC1)O2 [Example 132, 1-cyclopentyl-N-((2S,3R)-4-((S)-2,2-spirocyclopentyl-6-methylchroman-4-ylamino)-3-hydroxy-1-phenylbutan-2-yl)-6-oxo-1,6-dihydropyridine-3-carboxamide]
12 | ≤ 5 | CCc1ccc2c(c1)[C@@H](NC[C@@H](O)[C@H](Cc1ccccc1)NC(=O)c1ccc(=O)n(-c3ccccc3)n1)CC1(CCC1)O2 [Example 146, N-((2S,3R)-4-((S)-6-ethyl-2,2-spirocyclobutylchroman-4-ylamino)-3-hydroxy-1-phenylbutan-2-yl)-6-oxo-1-phenyl-1,6-dihydropyridazine-3-carboxamide]
13 | ≤ 5 | CCc1ccc2c(c1)[C@@H](NC[C@@H](O)[C@H](Cc1ccccc1)NC(=O)c1cc(-c3ccccc3F)c(=O)n3c1CCC3C)CC1(CCCC1)O2 (stereo partly drawn) [Example 159]
14 | ≤ 5 | Cc1cccc(C(=O)N2CCO[C@H](C(=O)N[C@@H](Cc3ccccc3)[C@H](O)CN[C@H]3CC(C)(C)Cc4ncc(C)cc43)C2)c1 [Example 498, (2S)-N-((1S,2R)-2-hydroxy-1-(phenylmethyl)-3-(((5S)-3,7,7-trimethyl-5,6,7,8-tetrahydro-5-quino-linyl)amino)propyl)-4-((3-methylphenyl)carbonyl)-2-morpholinecarboxamide]
15 | ≤ 5 | CCc1ccc2c(c1)[C@@H](NC[C@@H](O)[C@H](Cc1ccccc1)NC(=O)c1cn(C3CCCC3)c(=O)c3ccccc13)CC1(CCCC1)O2 [Example 158, 2-cyclopentyl-N-((2S,3R)-4-((S)-6-ethyl-2,2-spirocyclopentylchroman-4-ylamino)-3-hydroxy-1-phenylbutan-2-yl)-1-oxo-1,2-dihydroisoquinoline-4-carboxamide]
16 | ≤ 5 | Cc1cnc2c(c1)[C@@H](NC[C@@H](O)[C@H](Cc1cc(F)cc(F)c1)NC(=O)C1CCOCC1)CC1(CCC1)C2 [Example 510, N-((1S,2R)-1-((3,5-difluorophenyl)methyl)-2-hydroxy-3-(((5′S)-3′-methyl-5′,8′-dihydro-6′H-spiro[cyclobutane-1,7′-quinolin]-5′-yl)amino)propyl)tetrahydro-2H-pyran-4-carboxamide]
17 | ≤ 5 | CCc1ccc2c(c1)[C@@H](NC[C@@H](O)[C@H](Cc1ccccc1)NC(=O)c1nn(-c3ccccc3)c(=O)cc1Cl)CC1(CCC1)O2 [Example 147, 4-chloro-N-((2S,3R)-4-((S)-6-ethyl-2,2-spirocyclobutylchroman-4-ylamino)-3-hydroxy-1-phenylbutan-2-yl)-6-oxo-1-phenyl-1,6-dihydropyridazine-3-carboxamide]
18 | ≤ 5 | Cc1cccc(C(=O)N2CCO[C@H](C(=O)N[C@@H](Cc3cc(F)cc(F)c3)[C@H](O)CN[C@H]3CC4(CCC4)Cc4ncc(C)cc43)C2)c1 [Example 492, (2S)-N-((1S,2R)-1-((3,5-difluorophenyl)methyl)-2-hydroxy-3-(((5′S)-3′-methyl-5′,8′-dihydro-6′H-spiro[cyclobutane-1,7′-quinolin]-5′-yl)amino)propyl)-4-((3-methylphenyl)carbonyl)-2-morpholinecarboxamide]
19 | ≤ 5 | CC#CC[C@H](NC(=O)c1cc(-c2ccccn2)c(=O)n(C2CCCC2)c1)[C@H](O)CN[C@H]1CC2(CCC2)Oc2ccc(CC)cc21 [Example 477, 1′-cyclopentyl-N-((1S)-1-((1R)-2-(((4S)-6-ethyl-3,4-dihydrospiro[chromene-2,1′-cyclobutan]-4-yl)amino)-1-hydroxyethyl)-3-pentyn-1-yl)-2′-oxo-1′,2′-dihydro-2,3′-bipyridine-5′-carboxamide]
20 | ≤ 5 | O=C(N[C@@H](Cc1ccccc1)[C@H](O)CN[C@H]1CC2(CCC2)Oc2ccccc21)c1cc(N2CCCC2=O)c(=O)n(C2CCCC2)c1 [Example 152, 1-cyclopentyl-N-((2S,3R)-4-((S)-2,2-spirocyclobutylchroman-4-ylamino)-3-hydroxy-1-phenylbutan-2-yl)-6-oxo-5-(2-oxopyrrolidin-1-yl)-1,6-dihydropyridine-3-carboxamide]
21 | ≤ 5 | CC(C)c1ccc2c(c1)[C@@H](NC[C@@H](O)[C@H](Cc1ccccc1)NC(=O)C1CCCN(c3ccccn3)C1)CC1(CCCC1)O2 (stereo partly drawn) [Example 32, N-((2S,3R)-3-hydroxy-4-((S)-6-isopropyl-2,2-spirocyclopentylchroman-4-ylamino)-1-phenylbutan-2-yl)-1-(pyridin-2-yl)piperidine-3-carboxamide]
22 | ≤ 5 | CCc1ccc2c(c1)[C@H](NC[C@@H](O)[C@H](Cc1ccccc1)NC(=O)c1cc(-c3ccccn3)c(=O)n(C(C)C)c1)CC1(CCCC1)O2 [Example 165, N-((2S,3R)-4((R)-6-ethyl-2,2-spirocyclopentylchroman-4-ylamino)-3-hydroxy-1-phenylbutan-2-yl)-1-isopropyl-6-oxo-5-(pyridin-2-yl)-1,6-dihydropyridine-3-carboxamide]
23 | ≤ 5 | O=C(N[C@@H](Cc1ccccc1)[C@H](O)CN[C@H]1CC2(CCCC2)Oc2ccccc21)c1cc(N2CCCC2=O)c(=O)n(C2CCCC2)c1 [Example 148, 1-cyclopentyl-N-((2S,3R)-4-((S)-2,2-spirocyclopentylchroman-4-ylamino)-3-hydroxy-1-phenylbutan-2-yl)-6-oxo-5-(2-oxopyrrolidin-1-yl)-1,6-dihydropyridine-3-carboxamide]
24 | ≤ 5 | CCc1ccc2c(c1)C(NC[C@@H](O)[C@H](Cc1ccccc1)NC(=O)c1cc(-c3cncnc3)c(=O)n(C3CCCC3)c1)CC1(CCCC1)O2 (stereo partly drawn) [Example 16, 1-cyclopentyl-N-((2S,3R)-4-(6-ethyl-2,2-spirocyclopentylchroman-4-ylamino)-3-hydrodroxy-1-phenylbutan-2-yl)-6-OXO-5-(pyrimidin-5-yl)-1,6-dihydropyridine-3-carboxamide]
